According to US20230085307A1, “PYRIDAZINONE COMPOUND AND HERBICIDE” (NISSAN CHEMICAL CORPORATION, priority 2019, published 2023):

What was measured:
windgrass [1] = test: Test Example 5: herbicidal effect by foliage application, plastic box (Table 20, symbol L); type: in vivo, windgrass (Apera spica-venti); details: foliage application, 320 g/ha; for L: windgrass, herbicidal effect grade: three weeks after application
How it was run: (§1)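 Foliar spray test: emulsion formulation diluted in water to a set application rate, sprayed onto 14-day-old plants raised in diluvial soil at 25° C to 30° C under glass. Both herbicidal effect and crop effect rated visually three weeks later.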

lambsquarters = test: Test Example 5: herbicidal effect by foliage application, plastic box (Table 20, symbol O); type: in vivo, lambsquarters (Chenopodium album); details: foliage application, 320 g/ha; for O: lambsquarters, herbicidal effect grade: three weeks after application
How it was run: as §1

Italian ryegrass [2] = test: Test Example 5: herbicidal effect by foliage application, plastic box (Table 20, symbol K); type: in vivo, Italian ryegrass (Lolium multiflorum); details: foliage application, 320 g/ha; for K: Italian ryegrass, herbicidal effect grade: three weeks after application
How it was run: as §1

rice flat sedge = test: Test Example 3: herbicidal effect by foliage application, Wagner pot (Table 18, symbol E); type: in vivo, rice flat sedge (Cyperus iria); details: for herbicidal effect on rice flat sedge (E): 320 g/ha
How it was run: (§2)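 Plants were sown in alluvial soil held under 0.1–0.5 cm standing water and grown 14 days in a greenhouse at 25–30 °C. An emulsifiable formulation, water-diluted to the set dose, was then sprayed onto the foliage, and effects were scored three weeks later using previously defined criteria.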

Italian ryegrass [3] = test: Test Example 4: herbicidal effect by soil treatment (Table 19, symbol K); type: in vivo, Italian ryegrass (Lolium multiflorum); details: amount of applied herbicide 320 g/ha
How it was run: (§3)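 Step 1: sow seeds in sterilized diluvial soil, cover ~1.5 cm. Step 2: spray diluted emulsion onto soil surface at predetermined rate. Step 3: greenhouse, 25–30° C, three weeks. Step 4: grade effect on each plant by earlier criteria.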

green foxtail [4] = test: Test Example 5: herbicidal effect by foliage application, plastic box (Table 20, symbol G); type: in vivo, green foxtail (Setaria viridis); details: foliage application, 320 g/ha; for G: green foxtail, herbicidal effect grade: three weeks after application
How it was run: as §1

persian speedwell [5] = test: Test Example 4: herbicidal effect by soil treatment (Table 19, symbol R); type: in vivo, Persian speedwell (Veronica persica); details: amount of applied herbicide 320 g/ha
How it was run: as §3

Japanese bulrush = test: Test Example 2: herbicidal activity, application during weed generation under submerged conditions (Table 17, symbol B); type: in vivo, Japanese bulrush (Schoenoplectus juncoides); details: AAH 320 g/ha; application during weed generation, submerged conditions
How it was run: (§4)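 3-wk visual-criteria score after one water-surface dose. Emulsion formulation, water-diluted to set rate; applied at 1–2 leaf stage; alluvial soil, 4 cm standing water; seeds co-sown; greenhouse 25–30° C.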

green foxtail [6] = test: Test Example 4: herbicidal effect by soil treatment (Table 19, symbol G); type: in vivo, green foxtail (Setaria viridis); details: amount of applied herbicide 320 g/ha
How it was run: as §3

oval-leafed pondweed = test: Test Example 2: herbicidal activity, application during weed generation under submerged conditions (Table 17, symbol C); type: in vivo, oval-leafed pondweed (Monochoria vaginalis); details: AAH 320 g/ha; application during weed generation, submerged conditions
How it was run: as §4

barnyard grass = test: Test Example 3: herbicidal effect by foliage application, Wagner pot (Table 18, symbol H); type: in vivo, barnyard grass (Echinochloa crus-galli); details: for herbicidal effect on barnyard grass (H): 320 g/ha
How it was run: as §2

southern crabgrass = test: Test Example 5: herbicidal effect by foliage application, plastic box (Table 20, symbol F); type: in vivo, southern crabgrass (Digitaria ciliaris); details: foliage application, 320 g/ha; for F: southern crabgrass, herbicidal effect grade: three weeks after application
How it was run: as §1

chickweed = test: Test Example 4: herbicidal effect by soil treatment (Table 19, symbol P); type: in vivo, common chickweed (Stellaria media); details: amount of applied herbicide 320 g/ha
How it was run: as §3

persian speedwell [7] = test: Test Example 5: herbicidal effect by foliage application, plastic box (Table 20, symbol R); type: in vivo, Persian speedwell (Veronica persica); details: foliage application, 320 g/ha; for R: persian speedwell, herbicidal effect grade: three weeks after application
How it was run: as §1

late watergrass [8] = test: Test Example 1: herbicidal activity, application before weed generation under submerged conditions (Table 16, symbol A); type: in vivo, late watergrass (Echinochloa oryzicola); details: amount of applied herbicide 320 g/ha
How it was run: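 Submerged Wagner pots (alluvial soil, 4 cm water) sown with weed seeds and planted with 2.5-leaf rice seedlings; emulsifiable concentrate diluted in water applied to water surface on sowing day. Held in greenhouse at 25-30 °C; injury scored 0-5 by herbicidal rate after three weeks.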

late watergrass [9] = test: Test Example 2: herbicidal activity, application during weed generation under submerged conditions (Table 17, symbol A); type: in vivo, late watergrass (Echinochloa oryzicola); details: AAH 320 g/ha; application during weed generation, submerged conditions
How it was run: as §4

windgrass [10] = test: Test Example 4: herbicidal effect by soil treatment (Table 19, symbol L); type: in vivo, windgrass (Apera spica-venti); details: amount of applied herbicide 320 g/ha
How it was run: as §3

[11] = evaluated 3 weeks after application
[12] = amount of applied herbicide 320 g/ha

| SMILES | L: windgrass, herbicidal effect grade (windgrass [1]) | O: lambsquarters, herbicidal effect grade (lambsquarters) | K: Italian ryegrass, herbicidal effect grade (Italian ryegrass [2]) | herbicidal effect on rice flat sedge (E) (rice flat sedge) | K: Italian ryegrass, herbicidal effect grade (Italian ryegrass [3]) | G: green foxtail, herbicidal effect grade (green foxtail [4]) | R: persian speedwell, herbicidal effect grade (persian speedwell [5]) | herbicidal effect rating, B: Japanese bulrush (Japanese bulrush) | G: green foxtail, herbicidal effect grade (green foxtail [6]) | herbicidal effect rating, C: oval-leafed pondweed (oval-leafed pondweed) | herbicidal effect on barnyard grass (H) (barnyard grass) | F: southern crabgrass, herbicidal effect grade (southern crabgrass) | P: chickweed, herbicidal effect grade (chickweed) | R: persian speedwell, herbicidal effect grade (persian speedwell [7]) | Herbicidal effect, A: late watergrass (late watergrass [8]) | herbicidal effect rating, A: late watergrass (late watergrass [9]) | other results |
| --- | --- | --- | --- | --- | --- | --- | --- | --- | --- | --- | --- | --- | --- | --- | --- | --- | --- |
| COc1cc(F)ccc1-c1sc2cc(Cl)ccc2c1-c1c(O)c(C)nn(C)c1=O [3-043] | 5 (Herbicidal rate of 90% or more (almost completely withered)) | 4 (Herbicidal rate of 70% or more and less than 90%) | 2 (Herbicidal rate of 20% or more and less than 40%) | 5 (Herbicidal rate of 90% or more (almost completely withered)) | 1 (Herbicidal rate of 5% or more and less than 20%) | 5 (Herbicidal rate of 90% or more (almost completely withered)) | 3 (Herbicidal rate of 40% or more and less than 70%) | 0 (Herbicidal rate of 5% or less (almost no effect)) | 4 (Herbicidal rate of 70% or more and less than 90%) | 0 (Herbicidal rate of 5% or less (almost no effect)) | 5 (Herbicidal rate of 90% or more (almost completely withered)) | 0 (Herbicidal rate of 5% or less (almost no effect)) | 4 (Herbicidal rate of 70% or more and less than 90%) | 5 (Herbicidal rate of 90% or more (almost completely withered)) | 0 (Herbicidal rate of 5% or less (almost no effect)) | 3 (Herbicidal rate of 40% or more and less than 70%) | – |
| CCOc1cc(F)ccc1-c1sc2cc(Cl)ccc2c1-c1c(O)c(C)nn(C)c1=O [3-045] | 5 (Herbicidal rate of 90% or more (almost completely withered)) | 3 (Herbicidal rate of 40% or more and less than 70%) | 0 (Herbicidal rate of 5% or less (almost no effect)) | 5 (Herbicidal rate of 90% or more (almost completely withered)) | 0 (Herbicidal rate of 5% or less (almost no effect)) | 5 (Herbicidal rate of 90% or more (almost completely withered)) | 3 (Herbicidal rate of 40% or more and less than 70%) | 2 (Herbicidal rate of 20% or more and less than 40%) | 4 (Herbicidal rate of 70% or more and less than 90%) | 0 (Herbicidal rate of 5% or less (almost no effect)) | 5 (Herbicidal rate of 90% or more (almost completely withered)) | 5 (Herbicidal rate of 90% or more (almost completely withered)) | 4 (Herbicidal rate of 70% or more and less than 90%) | 5 (Herbicidal rate of 90% or more (almost completely withered)) | 2 (Herbicidal rate of 20% or more and less than 40%) | 2 (Herbicidal rate of 20% or more and less than 40%) | – |
| CCCOc1ccc2c(-c3c(O)c(C)nn(C)c3=O)c(-c3ccccc3OC)sc2c1 [3-099] | 5 (Herbicidal rate of 90% or more (almost completely withered)) | 5 (Herbicidal rate of 90% or more (almost completely withered)) | 5 (Herbicidal rate of 90% or more (almost completely withered)) | 5 (Herbicidal rate of 90% or more (almost completely withered)) | 5 (Herbicidal rate of 90% or more (almost completely withered)) | 5 (Herbicidal rate of 90% or more (almost completely withered)) | 4 (Herbicidal rate of 70% or more and less than 90%) | 4 (Herbicidal rate of 70% or more and less than 90%) | 5 (Herbicidal rate of 90% or more (almost completely withered)) | 3 (Herbicidal rate of 40% or more and less than 70%) | 5 (Herbicidal rate of 90% or more (almost completely withered)) | 5 (Herbicidal rate of 90% or more (almost completely withered)) | 3 (Herbicidal rate of 40% or more and less than 70%) | 5 (Herbicidal rate of 90% or more (almost completely withered)) | 5 (Herbicidal rate of 90% or more (almost completely withered)) | 3 (Herbicidal rate of 40% or more and less than 70%) | – |
| COc1ccccc1-c1sc2cc(OCC3CCCO3)ccc2c1-c1c(O)c(C)nn(C)c1=O (centres unmarked) [3-133] | 5 (Herbicidal rate of 90% or more (almost completely withered)) | 5 (Herbicidal rate of 90% or more (almost completely withered)) | 5 (Herbicidal rate of 90% or more (almost completely withered)) | 5 (Herbicidal rate of 90% or more (almost completely withered)) | – | 5 (Herbicidal rate of 90% or more (almost completely withered)) | – | 3 (Herbicidal rate of 40% or more and less than 70%) | – | 1 (Herbicidal rate of 5% or more and less than 20%) | 3 (Herbicidal rate of 40% or more and less than 70%) | 4 (Herbicidal rate of 70% or more and less than 90%) | – | 5 (Herbicidal rate of 90% or more (almost completely withered)) | 3 (Herbicidal rate of 40% or more and less than 70%) | 2 (Herbicidal rate of 20% or more and less than 40%) | Herbicidal effect by soil treatment, K: Italian ryegrass (Italian ryegrass [3]): 5 (Herbicidal rate of 90% or more (almost completely withered)); Herbicidal effect by soil treatment, G: green foxtail (green foxtail [6]): 5 (Herbicidal rate of 90% or more (almost completely withered)); Herbicidal effect by soil treatment, P: chickweed (chickweed): 4 (Herbicidal rate of 70% or more and less than 90%); Herbicidal effect by soil treatment, L: windgrass (windgrass [10]): 5 (Herbicidal rate of 90% or more (almost completely withered)) |
| COCCOc1ccc(-c2oc3ccc(F)cc3c2-c2c(O)c(C)nn(C)c2=O)cc1 [9-045] | – | – | – | – | 5 (Herbicidal rate of 90% or more (almost completely withered)) | – | 4 (Herbicidal rate of 70% or more and less than 90%) | 3 (Herbicidal rate of 40% or more and less than 70%) | 5 (Herbicidal rate of 90% or more (almost completely withered)) | 5 (Herbicidal rate of 90% or more (almost completely withered)) | – | – | 1 (Herbicidal rate of 5% or more and less than 20%) | – | 5 (Herbicidal rate of 90% or more (almost completely withered)) | 3 (Herbicidal rate of 40% or more and less than 70%) | L (windgrass) herbicidal effect grade (windgrass [1]; [11]): 3 (Herbicidal rate of 40% or more and less than 70%); O (lambsquarters) herbicidal effect grade (lambsquarters; [11]): 5 (Herbicidal rate of 90% or more (almost completely withered)); K (Italian ryegrass) herbicidal effect grade (Italian ryegrass [2]; [11]): 5 (Herbicidal rate of 90% or more (almost completely withered)); Herbicidal effect on E (rice flat sedge), foliage application (rice flat sedge; [12]): 5 (Herbicidal rate of 90% or more (almost completely withered)); G (green foxtail) herbicidal effect grade (green foxtail [4]; [11]): 5 (Herbicidal rate of 90% or more (almost completely withered)); Herbicidal effect on H (barnyard grass), foliage application (barnyard grass; [12]): 5 (Herbicidal rate of 90% or more (almost completely withered)); F (southern crabgrass) herbicidal effect grade (southern crabgrass; [11]): 5 (Herbicidal rate of 90% or more (almost completely withered)); R (persian speedwell) herbicidal effect grade (persian speedwell [7]; [11]): 5 (Herbicidal rate of 90% or more (almost completely withered)) |
